How the values were obtained:
[1] = test system: FR-α promoter; experiment: FR-α promoter-luciferase reporter in HeLa cells co-transfected with ER; type: cell-based
Protocol: (§1) (FIG. 1A) HeLa and IGROV-1 cells (10^6) were co-transfected with the FR-α promoter-luciferase construct (400 ng) and either an ER expression plasmid (25 ng) or with the plasmid vector alone (25 ng) in the presence of 1 nM E2. Antiestrogens were introduced at the time of transfection. […] (FIG. 1B) The FR-α promoter-luciferase construct (400 ng) was transfected into BG-1 cells (10^6) in the absence or in the presence of E2 (1 nM) and antiestrogens were introduced at the time of transfection. (FIG. 1C) HeLa cells (10^6) were transfected with the thymidine kinase (TK)-promoter-luciferase (200 ng) or Rous Sarcoma Virus (RSV)-promoter-luciferase (200 ng) constructs and were co-transfected with either ER plasmid (25 ng) or with the plasmid vector (25 ng). Antiestrogens were introduced at the time of transfection.
FIGS. 2A and 2B are graphs showing an estrogen and antiestrogen dose response of a control ERE-driven promoter and the FR-α promoter in HeLa cells. The Y-axis in FIG. 2A indicates promoter activation, whereas the Y-axis in FIG. 2B indicates promoter repression. The cells (10^6) were transfected with either ERE2E1b-luciferase (100 ng) (FIG. 2A) or FR-α promoter-luciferase (100 ng) (FIG. 2B) and co-transfected with the ER expression plasmid (50 ng) where indicated. Cells that were not co-transfected with the ER-plasmid were co-transfected instead with the plasmid vector alone (50 ng).
FIGS. 3A and 3B are graphs showing a time course of response of the control ERE2E1b-luciferase (FIG. 3A) and FR-α promoter luciferase (FIG. 3B) to antiestrogens in HeLa cells. The cells (10^6) were transfected with the indicated promoter-luciferase construct (100 ng) and co-transfected with ER expression plasmid (50 ng) in the presence of E2 (1 nM).
In one set of experiments, the antiestrogens were removed after a 6 h treatment.
Cell Culture and Transfection: HeLa I-1 cells were kindly provided by Dr. S. T. Rosen. BG-1 cells were provided by Dr. Randolf Ruch. HeLa (American Type Tissue Collection) and HeLa I-1 cells were routinely cultured in phenol red-free MEM supplemented with fetal bovine serum (FBS) (10%), penicillin (100 units/mL), streptomycin ([…]), and L-glutamine (2 mM). BG-1 and IGROV1 (American Type Tissue Collection) cells were routinely cultured in DMEM and supplemented as above. Treated or transfected cells were grown in phenol-red free media supplemented with charcoal-stripped FBS (5% v/v), penicillin (100 units/mL), streptomycin ([…]), L-glutamine (2 mM), insulin (2 μg/mL), and transferrin (40 μg/mL) unless otherwise noted. In addition, treated HeLa I-1 cells were grown in culture with 50 μg/mL G418. […] Uniformity of transfection was routinely monitored through cotransfections with the β-galactosidase expression plasmid, pSV-β-gal (Promega). β-galactosidase activity was measured colorimetrically using the assay system available from Promega.
Luciferase Assay: Forty-eight hours after transfection, the cells were washed once with PBS (10 mM sodium phosphate, pH 7.5, 150 mM NaCl) and harvested in 400 μL of reporter lysis buffer provided with the luciferase assay system (Promega). The samples were centrifuged at 12,000 g for 2 min at room temperature. The supernatant was assayed for luciferase activity in a luminometer (Lumat LB9501, Berthold) using the luciferase substrate from Promega.

[2] = test system: FR-α; experiment: FR-α in HeLa cell tumor xenografts after tamoxifen, western blot; type: in vivo, mouse; conditions: ER+ HeLa cell tumors, tamoxifen 1 mg/kg sc daily
[3] = test system: FR-α; experiment: Induction of endogenous FR-α in ER+/FRα-negative cells; type: cell-based; conditions: ER+/FRα-negative cells including BG-1; results not shown
Description: It appears that ER will only modulate the endogenous FR-α gene in cells in which the gene is transcriptionally active.

[4] = test system: FR-α promoter; experiment: FR-α promoter-luciferase reporter in IGROV-1 cells co-transfected with ER; type: cell-based; conditions: IGROV-1, ER co-transfected, 1 nM E2, pharmacologic concentrations of antiestrogen
Protocol: as §1
Cell Culture and Transfection: HeLa I-1 cells were kindly provided by Dr. S. T. Rosen. BG-1 cells were provided by Dr. Randolf Ruch. […] Uniformity of transfection was routinely monitored through cotransfections with the β-galactosidase expression plasmid, pSV-β-gal (Promega). β-galactosidase activity was measured colorimetrically using the assay system available from Promega. […]

[5] = test system: FR-α; experiment: Endogenous FR-α in AR-transfected HeLa cells, flow cytometry with fluorescein-folic acid conjugate; type: cell-based
Protocol: Where indicated, cells were transfected with AR expression plasmid and the testosterone (10 nM) and TSA (50 mg/ml) treatments were for 3 days post-transfection.

[6] = test system: PSA promoter; experiment: PSA promoter-luciferase in HeLa cells transfected with AR; type: cell-based; conditions: 10 nM, introduced 48 h post-transfection
Protocol: (§2) FIGS. 10A, 10B, 10C and 10D are graphs showing the enhancement of FR-α promoter activity by testosterone/AR. In HeLa cells, AR was introduced by transiently transfecting an AR expression plasmid. FR-α promoter-luciferase, PSA-promoter-luciferase, or promoterless PGL3 basic-luciferase was co-transfected. Testosterone was introduced at the time of transfection (10 nM in FIGS. 10A, 10C, and 10D) and cells harvested for luciferase assays 48 h post-transfection. […] FIGS. 10C and 10D show AR dose responses for the FR-α and PSA promoters, respectively.
(§3) FIG. 11 is a graph showing the time course of testosterone/AR action on FR-α and PSA promoters. HeLa cells were cotransfected with AR expression plasmid and either FR-α promoter-luciferase or PSA promoter-luciferase. Testosterone (10 nM) was introduced 48 h post-transfection and the cells harvested to assay luciferase activity at the indicated times.

[7] = test system: FR (α or β); experiment: FR induction by testosterone in FR-negative cell types; type: cell-based; conditions: results not shown
[8] = test system: FR-α promoter; experiment: FR-α promoter-luciferase in HeLa cells transfected with AR; type: cell-based; conditions: 10 nM
Protocol: as §2, §3

[9] = test system: FR-α promoter; experiment: FR-α promoter-luciferase in T47D cells (endogenous PR and GR); type: cell-based; conditions: TSA 25 ng/ml with R5020
Protocol: T47D cells were transfected with FR-α promoter-luciferase and where indicated, co-transfected with SRC1 expression plasmid. R5020 (10 nM) and TSA (25 mg/ml) treatments were initiated at the time of transfection and lasted 3 days at the end of which the cells were harvested for luciferase assays.

[10] = test system: FR-α promoter; experiment: FR-α promoter-luciferase in HeLa cells (endogenous GR); type: cell-based
Protocol: (§4) HeLa cells, which express endogenous GR, were transfected with FR-α promoter-luciferase or GRE2e1b promoter luciferase. […] FIG. 17B: Time course of Dex action. Promoter activity was measured in terms of luciferase activity at the different time points.

[11] = test system: GRE2e1b promoter
Protocol: as §4

[12] = biological target: T1, Estrogen receptor alpha (ER) (UniProt P03372 P03372:1-595); experiment: EMSA; HeLa NE present; E2 increased band, tamoxifen and ICI 182,780 abolished it; 100-fold unlabelled ERE blocked; room temperature, 50 mM KCl, 0.5 mM MgCl2; conditions: assayed with HeLa nuclear extract; label: 32P
T1 sequence (P03372 whole entry, one chain of several): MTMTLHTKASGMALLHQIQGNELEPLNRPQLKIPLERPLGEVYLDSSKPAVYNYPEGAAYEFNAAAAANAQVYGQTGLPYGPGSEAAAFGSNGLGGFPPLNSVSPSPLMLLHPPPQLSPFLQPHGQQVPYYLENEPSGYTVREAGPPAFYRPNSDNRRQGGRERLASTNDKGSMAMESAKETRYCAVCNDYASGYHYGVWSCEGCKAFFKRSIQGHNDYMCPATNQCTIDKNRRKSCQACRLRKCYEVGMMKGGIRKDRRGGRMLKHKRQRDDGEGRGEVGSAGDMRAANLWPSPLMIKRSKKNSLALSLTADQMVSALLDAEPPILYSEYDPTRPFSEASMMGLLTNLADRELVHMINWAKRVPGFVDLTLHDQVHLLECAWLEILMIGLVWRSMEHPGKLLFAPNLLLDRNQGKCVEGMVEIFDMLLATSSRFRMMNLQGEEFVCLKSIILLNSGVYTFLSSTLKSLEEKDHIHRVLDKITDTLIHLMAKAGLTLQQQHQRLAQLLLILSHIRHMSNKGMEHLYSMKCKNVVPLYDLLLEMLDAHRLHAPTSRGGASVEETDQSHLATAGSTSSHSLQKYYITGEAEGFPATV

[13] = biological target: T1, Estrogen receptor alpha (ER); experiment: EMSA; no ER shift with consensus Sp1; HeLa NE present; conditions: assayed with HeLa nuclear extract; label: 32P
[14] = biological target: T1, Estrogen receptor alpha (ER); experiment: EMSA; HeLa NE present; tamoxifen but not ICI 182,780 abolished band; conditions: assayed with HeLa nuclear extract; label: 32P

## CC/C(=C(\c1ccccc1)c1ccc(OCCN(C)C)cc1)c1ccccc1 [tamoxifen, Tamoxifen]
[1]; 6 h treatment, then compound withdrawn
  derepression of FR-α promoter after 6 h treatment and withdrawal: partially lost
[1]; HeLa, ER co-transfected
  effect on FR-α promoter (ligand dose response): the repression was counteracted
[1]; HeLa, ER co-transfected, 1 nM E2, pharmacologic concentrations of antiestrogen
  FR-α promoter activity after repression by ER: either partially or completely restored to the uninhibited values
[1]; antiestrogen introduced 24 h after co-transfection
  reporter activity at the end of 48 h post-transfection: a doubling of the reporter activity
[1]; antiestrogen introduced 24 h after transfection
  onset of activation of FR-α promoter: began within hours and progressively increased
[1]; no ER co-transfected, HeLa and IGROV-1, results not shown
  FR-α promoter activity in the absence of ER: did not alter FR-α promoter activity
[2]
  FR-α expression in tumors: significant increase in FR-α expression
[3]
  induction of endogenous FR-α expression: In no case did the inventor observe induction
[4]
  FR-α promoter activity after repression by ER: either partially or completely restored to the uninhibited values

## C[C@]12CC[C@H]3[C@@H](CCC4=CC(=O)CC[C@@]43C)[C@@H]1CC[C@@H]2O [testosterone]
[5]; 10 nM for 3 days, AR transfected
  increase in fluorescence of the major peak (endogenous FR): approximately 7 fold
[6]
  time at which activation was observed: 2 h
[7]
  induction of FR (α or β) expression: did not induce FR (α or β) expression
[8]
  FR-α promoter activity: increased the promoter activity
[8]; introduced 48 h post-transfection
  time at which activation was observed: 2 h

## CC(/C=C/C(=O)NO)=C\[C@@H](C)C(=O)c1ccc(N(C)C)cc1 [TSA, trichostatin A]
[5]; 50 ng/ml TSA with testosterone 10 nM
  further enhancement of the testosterone/AR-dependent increase: ~4 fold
[9]
  activation of the FR-α promoter by R5020: greatly potentiated

## C[C@@H]1C[C@H]2[C@@H]3CCC4=CC(=O)C=C[C@]4(C)[C@@]3(F)[C@@H](O)C[C@]2(C)[C@@]1(O)C(=O)CO [Dex, dexamethasone]
[10]
  concentration of optimal enhancement: 50 nM
  time at which enhancement began: > 48 h
[11]
  time at which activation was shown: ≤ 3 h

B1: FR-alpha P4 promoter probe -89 to -50 (dsDNA)
DNA 1: GGAGATGGGGGCAGGGCTCTATCTGCCCCAGGCTTCCGTCC
DNA 2: GGACGGAAGCCTGGGGCAGATAGAGCCCTGCCCCCATCTCC
[12]
  binding result: binds

B2: consensus Sp1 probe (dsDNA)
DNA 1: ATTCGATCGGGGCGGGGCGAG
DNA 2: CTCGCCCCGCCCCGATCGAAT
[13]
  binding result: no binding

B3: consensus ERE probe (dsDNA)
DNA 1: GTCAGGTCACAGTGACCTGA
DNA 2: TCAGGTCACTGTGACCTGAC
[14]
  binding result: binds
